Results on eight molecules are retold here after patent US7709451B2, “Method and composition for treating immune complex associated disorders” (Trustees of Boston University, priority 1997, dated 2010).

One assay has as its system AM14 RF+ B cells. Nature of the assay: RF+ B cell proliferation (3[H]-thymidine incorporation). Format: cell-based, mouse. To be noted: for Inhibition of RF+ B cell response to mAb PL2-3 / chromatin-containing IC: FIGS. 5A-5C. The procedure: Cell culture and reagents. Spleen cell preparations were T-depleted and cultured with the appropriate ligands for 40-48 hrs. In some experiments, B cells were preincubated with CD40L as described (Rifkin, et al., J. Immunol. 165, 1626-1633 (2000)). Proliferation was assessed by ^3[H]-thymidine incorporation during the final 16 hours of culture. Data are presented as the mean percentage of the anti-IgM response from triplicate cultures. The percentage of the anti-IgM response was calculated according to the formula: [(cpm experimental condition−cpm CD40L alone)/(cpm anti-IgM−cpm CD40L alone)×100].
In some experiments, DNase I (type IV) (Sigma, St. Louis, Mo.), chloroquine (Sigma), concanamycin B, bafilomycin A (Sigma), or 12 μg/ml of the inhibitory CpG S-ODN 2008 (Lenart, et al., Antisense Nucleic Acid Drug Dev. 4, 247-256 (2001)) (Oligo's Etc.) were added to the cultures 15-30 min-2 hr before the addition of the ligands.
In general terms: Uptake of a labelled nucleoside into DNA is a usual measure of proliferation.

Assay [1] has as its system dendritic cells from C57BL/6 mice lacking the Fc receptor γ chain. Nature of the assay: Dendritic cell TNF-α production, Fc receptor γ chain deficient mice. To be noted: Table 2, Fc receptor γ chain deficient dendritic cells; 48 hours. Format: cell-based, mouse. The procedure:
(§1) Dendritic cells were generated from the bone marrow of C57BL/6 wildtype mice and from C57BL/6 mice lacking the Fc receptor γ chain in by in vitro culture of the bone marrow cells with GM-CSF and IL-4 for 6 days. On day 6, the CD11c positive dendritic cells were isolated using magnetic beads. The stimulatory ODN 1826 (3 μg/ml), that specifically activates through TLR9, lipopolysaccharide (LPS, 10 μg/ml), the anti-chromatin antibodies PL2-3 (50 μg/ml; IgG2a) and PL2-8 (50 μg/ml; IgG2b), two different antibody/protein ratios of α-TNP/TNP-BSA immune complexes (50 μg/ml), or the culture medium only (media), was then added to the dendritic cell cultures. After 48 hours, levels of TNF-α in the culture supernatants was measured by ELISA (results shown as pg/ml; lower level of sensitivity of assay is 50 pg/ml). A representative experiment of 2 similar experiments is shown.

Another assay relates to RF+ MyD88−/− B cells. Nature of the assay: Proliferation of RF+ MyD88-/- B cells. Format: cell-based, mouse. To be noted: FIG. 4C. The procedure: To investigate the potential role of TLRs in mediating RF+ B cell responses to autoantibody/autoantigen IC, we crossed the AM14 transgenes onto a MyD88−/− background (Adachi, et al., Immunity 9, 143-150 (1998)). B cells from RF− MyD88+/+ (wildtype), RF+ MyD88+/+, and RF+ MyD88−/− offspring, identified by a combination of PCR and FACS analysis (FIGS. 4A-4B), were assessed for their ability to respond to anti-IgM, CpG ODN, and LPS, as well as to a panel of anti-nucleosome mAbs and autoimmune sera.
Mice. […] Complement receptor genotype was determined by flow cytometry using the FITC-conjugated 7G6 antibody (Pharmingen, San Diego, Calif.). MyD88 genotype was determined by PCR using the primers: MyD88F (5′-TGGCATGCCTCCATCATAGTTAACC-3′) [SEQ ID NO: 1], MyD88R (5′-GTCAGAAACAACCACCACCATGC-3′) [SEQ ID NO: 2], and neoR (5′-ATCGCCTTCTATCGCCTTCTTGACG-3′) [SEQ ID NO: 3] […]
Cell culture and reagents. […] Proliferation was assessed by ^3[H]-thymidine incorporation during the final 16 hours of culture. […] The percentage of the anti-IgM response was calculated according to the formula: [(cpm experimental condition−cpm CD40L alone)/(cpm anti-IgM−cpm CD40L alone)×100].

Assay [2] concerns CD11c positive dendritic cells from bone marrow of C57BL/6 mice. Nature of the assay: Dendritic cell activation (TNF-α and IL-12 ELISA, CD86 flow cytometry). Format: cell-based, mouse. To be noted: for TNF-α in culture supernatants (ELISA): 48 hours. The procedure: Dendritic cells were generated from the bone marrow of C57BL/6 mice by in vitro culture with GM-CSF and IL-4 for 6 days. On day 6, the CD11c positive dendritic cells were isolated using magnetic beads (Miltenyi Biotec) and either pre-incubated, or not pre-incubated, for 30 minutes with ODN 2088, an inhibitory oligodeoxynucleotide that specifically blocks signaling through TLR9. The stimulatory ODN 1826 (CpG, 3 μg/ml), that specifically activates through TLR9, or lipopolysaccharide (LPS, 10 μg/ml), that activates through TLR4, or culture medium only (media), was then added to the cultures. After 48 hours, levels of TNF-α (8A) and IL-12 (8B) in the culture supernatants were measured by ELISA (results shown as OD units determined by absorption at 405 nm). After removal of the supernatants, cells were collected and analyzed by flow cytometry for expression of the co-stimulatory molecule CD86 (8c). Unstimulated refers to the level of expression of CD86 in the presence of media alone, whereas stimulated refers to the level of expression of CD86 in the presence of the stimulus (ODN 1826 or LPS).
Dendritic cells were generated from the bone marrow of C57BL/6 mice by in vitro culture with GM-CSF and IL-4 for 6 days. On day 6, the CD11c positive dendritic cells were isolated using magnetic beads (Miltenyi Biotec). The dendritic cells were then either pre-incubated, or not pre-incubated, for 30 minutes with ODN 2088 at 12 μg/ml. The stimulatory ODN 1826 (3 μg/ml), that specifically activates through TLR9, lipopolysaccharide (LPS, 10 μg/ml), that activates through TLR4, the anti-chromatin antibody PL2-3 (50 μg/ml), three different antibody/protein ratios of α-TNP/TNP-BSA immune complexes (50 μg/ml), or the culture medium only (media), was then added to the cultures. After 48 hours, levels of TNF-α in the culture supernatants was measured by ELISA (results shown as pg/ml; lower level of sensitivity of assay is 50 pg/ml). A representative experiment of 3 similar experiments is shown.
as §1
(In an ELISA, binding on a coated surface is turned into a signal by an enzyme label.)

For assay [3] the following is noted: in vivo; cited from earlier work.
Setting [4] is: Table 1, column 2088: pre-incubated 30 minutes with ODN 2088 at 12 μg/ml.
[5] abbreviates: Table 1, column None: no ODN 2088 pre-incubation, lower level of sensitivity 50 pg/ml.
The mark [6] stands for this setting: Table 2, wildtype C57BL/6 dendritic cells.

Entries after “also recorded” stand apart in the source; their conditions may differ.

For the molecule `CO/C1=C\C(C)=C\[C@@H](C)[C@@H](O)[C@@H](C)C/C(C)=C/C=C/[C@H](OC)[C@@H]([C@@H](C)[C@@H](O)[C@H](C)[C@@]2(O)C[C@@H](O)[C@H](C)[C@@H](C(C)C)O2)OC1=O` [bafilomycin A], the “Inhibition of RF+ B cell response to mAb PL2-3 / chromatin-containing IC” value in the assay on AM14 RF+ B cells was “inhibited”.
For ODN 1826, the “TNF-α in culture supernatants (ELISA)” value in assay [1] was 2373 pg/mL; in assay [2] (setting [4]), less than 50 pg/mL; in assay [2] (setting [5]), 2347 pg/mL; in assay [2] (setting [6]), 7899 pg/mL. Further, the “Proliferative response of B cells from RF+ MyD88-deficient mice” value in the assay on RF+ MyD88−/− B cells was “unable to respond”. In addition, the “Cytokine production by dendritic cells” value in assay [2] (3 μg/ml, 48 hours (FIGS. 8A, 8B)) is “induces TNF-α and IL-12 production”. For the same molecule, in assay [2] (FIG. 8C), the “Co-stimulatory molecule (CD86) expression on dendritic cells” value was “induces upregulation of co-stimulatory molecules”.
As to `CCN(CC)CCCC(C)Nc1ccnc2cc(Cl)ccc12` (stereo not drawn) [chloroquine], the “Inhibition of RF+ B cell response to mAb PL2-3 / chromatin-containing IC” value in the assay with AM14 RF+ B cells was “completely blocked; also recorded: inhibited”. Besides, the “Inhibition of proliferative response to stimulatory CpG S-ODN 1826” value in the assay on AM14 RF+ B cells (TLR9 ligand) is recorded as “inhibited”. Besides, in assay [3], the “Treatment of autoimmune diseases including rheumatoid arthritis and SLE” value is listed as “effective treatment”.
Regarding lipopolysaccharide [LPS], the “TNF-α in culture supernatants (ELISA)” value in assay [1] amounted to 3411 pg/mL; in assay [2] (setting [4]), 2393 pg/mL; in assay [2] (setting [5]), 2514 pg/mL; in assay [2] (setting [6]), 7056 pg/mL. Further, the “Proliferative response of B cells from RF+ MyD88-deficient mice” value in the assay on RF+ MyD88−/− B cells is recorded as “responded only weakly”.
Consider `Cl.N` [ammonium chloride], for which the “Inhibition of RF+ B cell response to mAb PL2-3 / chromatin-containing IC” value in the assay on AM14 RF+ B cells was “inhibited”.
With `C/C=C/[C@H]1O[C@@](O)([C@@H](C)[C@H](O)[C@H](C)[C@H]2OC(=O)/C(OC)=C/C(C)=C/[C@@H](C)[C@@H](O)[C@@H](C)[C@@H](O)[C@H](C)C/C(C)=C/C=C/[C@@H]2OC)C[C@@H](O[C@H]2C[C@@H](O)[C@H](OC(N)=O)[C@@H](C)O2)[C@@H]1C` [concanamycin B], the “Inhibition of RF+ B cell response to mAb PL2-3 / chromatin-containing IC” value in the assay with AM14 RF+ B cells was “inhibited”.
Still for that read-out and setting: the entry for `C/C=C/[C@H]1O[C@@](O)([C@@H](C)[C@H](O)[C@H](C)[C@H]2OC(=O)/C(OC)=C/C(C)=C/[C@@H](C)[C@@H](O)[C@@H](CC)[C@@H](O)[C@H](C)C/C(C)=C/C=C/[C@@H]2OC)C[C@@H](O[C@H]2C[C@@H](O)[C@H](OC(N)=O)[C@@H](C)O2)[C@@H]1C` [concanamycin A] is “completely blocked”.
Consider DNase, for which, in the assay on AM14 RF+ B cells (DNase added to assay medium (FIG. 1)), the “Effect of DNase on RF+ B cell proliferative response to anti-nucleosome mAb PL2-3 or autoimmune serum” value was “dramatically reduced”. Moreover, the “Effect of DNase on responses to F(ab')2 anti-IgM and LPS” value in the assay on AM14 RF+ B cells (FIG. 1, nonspecific toxicity control) was “unaffected”.
